Results: patent US10512634B2, “Benzimidazole derivates useful as inhibitors of mammalian histone deacetylase activity” (KANCERA AB, priority 2015, dated 2019)
Where two headings read alike, the source gives them in different places.

What was measured:
HDAC1 = HDAC1 (Homo sapiens (Human), UniProt Q13547); assay: HDAC in vitro enzymatic assay (fluorescence); conditions: read-out: IC50 HDAC 1; full HDAC panel; top concentration 10 μM
HDAC4 = HDAC4 (Homo sapiens (Human), UniProt P56524); assay: HDAC in vitro enzymatic assay (full HDAC panel); conditions: read-out: IC50 HDAC4, top concentration 10 μM
HDAC9 = HDAC9 (Homo sapiens (Human), UniProt Q9UKV0); assay: HDAC in vitro enzymatic assay (full HDAC panel); conditions: read-out: IC50 HDAC9, top concentration 10 μM
HDAC3 = HDAC3 (Homo sapiens (Human), UniProt O15379); assay: HDAC in vitro enzymatic assay (fluorescence); conditions: read-out: IC50 HDAC3; full HDAC panel; top concentration 10 μM
HDAC11 = HDAC11 (Homo sapiens (Human), UniProt Q96DB2); assay: HDAC in vitro enzymatic assay (full HDAC panel); conditions: read-out: IC50 HDAC11, top concentration 10 μM
HDAC10 = HDAC10 (Homo sapiens (Human), UniProt Q969S8); assay: HDAC in vitro enzymatic assay (full HDAC panel); conditions: read-out: IC50 HDAC10, top concentration 10 μM
HDAC6 = HDAC6 (Homo sapiens (Human), UniProt Q9UBN7); assay: HDAC in vitro enzymatic assay (fluorescence); format: biochemical
Procedure: Biological Tests Method for Measurement of Enzymatic Activity of HDACs Materials & Methods
All Examples were tested in HDAC1, 2, 3, 6 and 8 in vitro enzymatic assays. The assay principle is well known (Hauser et al. 2009, Bradner et al. 2010) and all necessary reagents like enzymes, substrates, developer and reference compounds are commercially available (see e.g. BPS Biosciences http://www.bpsbioscience.com/). A series of dilutions of the compounds were prepared with a top concentration of 200 μM (2 μM for HDAC6). The enzymatic reactions were conducted in a mixture containing assay buffer, bovine serum albumin, HDAC substrate, and a test compound. After enzymatic reaction, developer was added and after an additional incubation time, fluorescence intensity was measured at an excitation wavelength of 360 nm and an emission wavelength of 460 nm. A selection of the Examples were tested in a full HDAC panel containing HDAC1, 2, 3, 4, 5, 6, 7, 8, 9, 10 and 11 in vitro enzymatic assays. The tests were performed as above except that a series of dilutions of the compounds were prepared with a top concentration of 10 μM for all HDACs.

HDAC7 = HDAC7 (Homo sapiens (Human), UniProt Q8WUI4); assay: HDAC in vitro enzymatic assay (full HDAC panel); conditions: read-out: IC50 HDAC7, top concentration 10 μM
HDAC8 = HDAC8 (Homo sapiens (Human), UniProt Q9BY41); assay: HDAC in vitro enzymatic assay (fluorescence); conditions: read-out: IC50 HDAC8; full HDAC panel; top concentration 10 μM
HDAC2 = HDAC2 (Homo sapiens (Human), UniProt Q92769); assay: HDAC in vitro enzymatic assay (fluorescence); conditions: read-out: IC50 HDAC2; full HDAC panel; top concentration 10 μM
HDAC5 = HDAC5 (Homo sapiens (Human), UniProt Q9UQL6); assay: HDAC in vitro enzymatic assay (full HDAC panel); conditions: read-out: IC50 HDAC5, top concentration 10 μM
Chain of HDAC5 (Q9UQL6 whole entry): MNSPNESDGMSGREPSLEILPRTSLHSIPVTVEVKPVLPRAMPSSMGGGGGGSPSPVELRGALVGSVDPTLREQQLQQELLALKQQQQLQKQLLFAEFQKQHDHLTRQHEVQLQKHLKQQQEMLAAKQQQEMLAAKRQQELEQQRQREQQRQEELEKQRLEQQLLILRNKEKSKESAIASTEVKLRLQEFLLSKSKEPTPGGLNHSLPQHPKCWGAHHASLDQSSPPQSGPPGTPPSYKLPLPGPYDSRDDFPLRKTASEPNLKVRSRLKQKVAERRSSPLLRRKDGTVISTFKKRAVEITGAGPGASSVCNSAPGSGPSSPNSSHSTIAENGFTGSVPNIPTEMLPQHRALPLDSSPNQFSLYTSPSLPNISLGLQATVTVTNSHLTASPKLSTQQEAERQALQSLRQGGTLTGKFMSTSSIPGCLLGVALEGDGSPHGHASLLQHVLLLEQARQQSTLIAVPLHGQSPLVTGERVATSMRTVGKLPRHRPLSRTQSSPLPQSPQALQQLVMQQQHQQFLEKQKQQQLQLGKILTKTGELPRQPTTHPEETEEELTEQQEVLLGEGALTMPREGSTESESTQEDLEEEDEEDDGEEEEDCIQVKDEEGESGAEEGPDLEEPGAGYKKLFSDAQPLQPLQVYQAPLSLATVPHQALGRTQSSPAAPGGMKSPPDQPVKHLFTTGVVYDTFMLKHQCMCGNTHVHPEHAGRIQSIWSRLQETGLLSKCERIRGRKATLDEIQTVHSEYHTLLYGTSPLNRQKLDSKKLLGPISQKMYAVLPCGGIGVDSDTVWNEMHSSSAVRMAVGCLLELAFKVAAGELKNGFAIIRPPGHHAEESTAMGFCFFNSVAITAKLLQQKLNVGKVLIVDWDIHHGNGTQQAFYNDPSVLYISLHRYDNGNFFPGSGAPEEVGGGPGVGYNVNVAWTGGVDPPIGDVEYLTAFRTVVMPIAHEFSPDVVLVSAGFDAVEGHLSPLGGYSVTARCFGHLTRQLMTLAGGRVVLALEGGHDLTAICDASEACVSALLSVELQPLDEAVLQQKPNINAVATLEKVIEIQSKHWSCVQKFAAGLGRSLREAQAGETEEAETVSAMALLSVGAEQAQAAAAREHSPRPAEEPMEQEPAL

Chain of HDAC3 (O15379 whole entry): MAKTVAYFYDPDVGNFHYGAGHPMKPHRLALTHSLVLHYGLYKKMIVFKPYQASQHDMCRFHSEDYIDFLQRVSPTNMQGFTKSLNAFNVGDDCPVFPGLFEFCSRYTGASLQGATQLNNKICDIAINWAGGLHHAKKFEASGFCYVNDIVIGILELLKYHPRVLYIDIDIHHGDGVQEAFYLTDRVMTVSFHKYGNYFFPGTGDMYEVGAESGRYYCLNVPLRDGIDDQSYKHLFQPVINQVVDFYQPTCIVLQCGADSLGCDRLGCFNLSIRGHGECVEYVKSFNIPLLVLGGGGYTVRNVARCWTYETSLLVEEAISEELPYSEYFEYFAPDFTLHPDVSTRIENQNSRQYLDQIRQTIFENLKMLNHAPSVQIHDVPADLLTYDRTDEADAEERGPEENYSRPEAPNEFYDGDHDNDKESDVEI
Chain of HDAC3 (Q9Y618 395-489 partner): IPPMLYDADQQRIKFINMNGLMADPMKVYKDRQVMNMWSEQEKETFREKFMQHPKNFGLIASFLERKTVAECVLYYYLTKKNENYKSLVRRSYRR
Chain of HDAC8 (Q9BY41 whole entry): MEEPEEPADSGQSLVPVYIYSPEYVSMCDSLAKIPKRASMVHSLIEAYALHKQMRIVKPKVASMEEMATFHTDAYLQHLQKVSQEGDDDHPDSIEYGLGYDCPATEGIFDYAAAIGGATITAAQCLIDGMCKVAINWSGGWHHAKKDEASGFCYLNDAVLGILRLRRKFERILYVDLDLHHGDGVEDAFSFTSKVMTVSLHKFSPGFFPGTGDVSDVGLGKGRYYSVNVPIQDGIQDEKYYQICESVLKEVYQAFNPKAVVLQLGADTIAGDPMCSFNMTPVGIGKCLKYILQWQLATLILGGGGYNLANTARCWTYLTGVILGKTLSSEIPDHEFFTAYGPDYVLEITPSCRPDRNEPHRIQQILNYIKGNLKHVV
Chain of HDAC2 (Q92769 whole entry): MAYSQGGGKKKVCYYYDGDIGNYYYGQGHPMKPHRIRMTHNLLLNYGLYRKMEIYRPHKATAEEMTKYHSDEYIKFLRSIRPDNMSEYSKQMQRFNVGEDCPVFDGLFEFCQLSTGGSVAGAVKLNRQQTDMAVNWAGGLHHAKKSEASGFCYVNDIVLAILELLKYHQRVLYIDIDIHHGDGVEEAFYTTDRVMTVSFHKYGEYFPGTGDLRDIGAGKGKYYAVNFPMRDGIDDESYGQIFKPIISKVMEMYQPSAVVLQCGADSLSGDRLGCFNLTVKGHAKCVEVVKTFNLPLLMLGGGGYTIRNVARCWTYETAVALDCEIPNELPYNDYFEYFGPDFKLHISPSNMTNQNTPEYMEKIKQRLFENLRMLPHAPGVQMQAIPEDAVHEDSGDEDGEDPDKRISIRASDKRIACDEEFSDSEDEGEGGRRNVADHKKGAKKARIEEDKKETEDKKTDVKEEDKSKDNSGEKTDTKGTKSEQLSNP
Chain of HDAC1 (Q13547 whole entry): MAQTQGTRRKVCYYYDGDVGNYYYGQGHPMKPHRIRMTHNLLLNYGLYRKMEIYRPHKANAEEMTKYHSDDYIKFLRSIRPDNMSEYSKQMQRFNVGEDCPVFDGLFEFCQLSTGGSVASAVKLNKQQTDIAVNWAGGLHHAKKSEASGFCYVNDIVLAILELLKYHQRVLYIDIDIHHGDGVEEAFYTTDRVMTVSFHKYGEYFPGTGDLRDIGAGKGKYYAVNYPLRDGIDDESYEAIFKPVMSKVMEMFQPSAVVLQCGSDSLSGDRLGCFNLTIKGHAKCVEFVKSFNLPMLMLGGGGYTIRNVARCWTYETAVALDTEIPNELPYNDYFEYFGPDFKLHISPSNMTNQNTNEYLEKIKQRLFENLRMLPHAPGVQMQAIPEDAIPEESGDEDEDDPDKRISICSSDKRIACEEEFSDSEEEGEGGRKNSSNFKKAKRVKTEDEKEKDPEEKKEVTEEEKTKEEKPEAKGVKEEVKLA
Chain of HDAC11 (Q96DB2 whole entry): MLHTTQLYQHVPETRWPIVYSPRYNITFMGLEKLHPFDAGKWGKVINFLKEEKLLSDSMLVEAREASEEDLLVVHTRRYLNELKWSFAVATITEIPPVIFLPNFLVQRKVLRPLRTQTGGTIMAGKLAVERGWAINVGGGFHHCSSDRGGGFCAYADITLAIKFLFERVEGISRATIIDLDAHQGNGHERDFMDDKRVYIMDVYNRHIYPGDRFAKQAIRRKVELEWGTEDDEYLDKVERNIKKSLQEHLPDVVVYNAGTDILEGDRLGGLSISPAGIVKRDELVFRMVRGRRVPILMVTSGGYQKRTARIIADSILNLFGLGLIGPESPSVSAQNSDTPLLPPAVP
Chain of HDAC9 (Q9UKV0 whole entry): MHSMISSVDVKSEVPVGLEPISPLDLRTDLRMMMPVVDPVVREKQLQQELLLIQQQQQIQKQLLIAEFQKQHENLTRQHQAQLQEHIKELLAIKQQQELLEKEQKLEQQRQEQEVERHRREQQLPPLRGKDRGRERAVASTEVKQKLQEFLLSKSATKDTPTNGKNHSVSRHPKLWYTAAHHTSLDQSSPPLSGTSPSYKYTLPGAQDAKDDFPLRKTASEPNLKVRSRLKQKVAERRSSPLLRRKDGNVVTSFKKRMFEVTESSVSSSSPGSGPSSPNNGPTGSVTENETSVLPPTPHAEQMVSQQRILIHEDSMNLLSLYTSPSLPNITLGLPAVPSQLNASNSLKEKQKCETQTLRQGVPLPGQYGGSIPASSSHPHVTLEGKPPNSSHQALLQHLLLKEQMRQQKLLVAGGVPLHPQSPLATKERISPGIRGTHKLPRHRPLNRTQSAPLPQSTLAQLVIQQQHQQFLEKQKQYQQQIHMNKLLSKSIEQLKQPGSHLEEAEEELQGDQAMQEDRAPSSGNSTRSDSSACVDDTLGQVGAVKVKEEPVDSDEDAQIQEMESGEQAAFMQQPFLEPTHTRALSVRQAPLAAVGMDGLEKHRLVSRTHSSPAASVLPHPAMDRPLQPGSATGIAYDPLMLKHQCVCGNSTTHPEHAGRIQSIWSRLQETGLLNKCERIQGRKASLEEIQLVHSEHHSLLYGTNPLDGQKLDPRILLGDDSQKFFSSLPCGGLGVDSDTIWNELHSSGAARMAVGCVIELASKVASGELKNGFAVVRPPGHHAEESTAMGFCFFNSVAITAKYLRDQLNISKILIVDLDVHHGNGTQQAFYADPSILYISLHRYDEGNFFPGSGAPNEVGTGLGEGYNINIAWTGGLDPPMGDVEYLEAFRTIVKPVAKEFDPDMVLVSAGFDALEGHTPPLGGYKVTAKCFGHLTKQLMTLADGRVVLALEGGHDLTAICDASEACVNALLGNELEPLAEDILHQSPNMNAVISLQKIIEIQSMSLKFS
Chain of HDAC10 (Q969S8 whole entry): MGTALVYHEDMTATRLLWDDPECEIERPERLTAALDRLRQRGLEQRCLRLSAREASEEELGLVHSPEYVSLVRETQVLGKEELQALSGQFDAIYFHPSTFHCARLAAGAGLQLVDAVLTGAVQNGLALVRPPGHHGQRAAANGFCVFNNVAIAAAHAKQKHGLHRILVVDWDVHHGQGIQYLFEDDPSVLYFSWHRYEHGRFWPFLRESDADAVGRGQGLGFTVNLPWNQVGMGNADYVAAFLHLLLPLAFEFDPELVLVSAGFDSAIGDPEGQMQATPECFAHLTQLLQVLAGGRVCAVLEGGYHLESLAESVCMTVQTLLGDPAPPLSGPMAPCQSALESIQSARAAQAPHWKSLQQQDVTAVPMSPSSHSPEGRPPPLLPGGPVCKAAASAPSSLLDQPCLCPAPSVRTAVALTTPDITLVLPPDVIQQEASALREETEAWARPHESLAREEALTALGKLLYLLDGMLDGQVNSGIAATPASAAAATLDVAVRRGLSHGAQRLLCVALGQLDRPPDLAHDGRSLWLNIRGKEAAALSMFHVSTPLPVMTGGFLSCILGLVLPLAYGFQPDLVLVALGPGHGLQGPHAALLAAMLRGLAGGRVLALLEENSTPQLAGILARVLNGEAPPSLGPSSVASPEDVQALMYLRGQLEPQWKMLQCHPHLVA

O=C(NO)c1ccc2nc(-c3ccccc3C(F)(F)F)[nH]c2c1 [Example 18, N-hydroxy-2-[2-(trifluoromethyl)phenyl]-1H-benzimidazole-6-carboxamide]
IC50 (HDAC1): > 10 µM
IC50 (HDAC4): > 10 µM
IC50 (HDAC9): > 10 µM
IC50 (HDAC3): 3 µM
IC50 (HDAC11): > 10 µM
IC50 (HDAC10): 8.6 µM
IC50 (HDAC6; full HDAC panel, top concentration 10 μM, read-out: IC50 HDAC6): 0.077 µM
IC50 (HDAC6; top concentration 2 μM, read-out: IC50 values for inhibition of HDAC6): 0.077 µM
IC50 (HDAC7): 9.2 µM
IC50 (HDAC8): > 10 µM
IC50 (HDAC2): > 10 µM
IC50 (HDAC5): > 10 µM
